Experimental data: ChEMBL document CHEMBL1201862, “PubChem BioAssay data set” (2004)
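48-hour exposure; five concentrations; linearly interpolated endpoints. GI50 marks 50% less growth.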 Active and inactive are the calls of the source. Rule as the data show it: active = GI50 up to about 1.1 µM and inactive = higher.

What was measured:
Experiment in all cases: NCI-60 cell line screen, 48 h
[1] = tested on: K562
[2] = tested on: ACHN
[3] = tested on: HCT-116
[4] = tested on: UO-31
[5] = tested on: SW-620
[6] = tested on: SR
[7] = tested on: UACC-62
[8] = tested on: SK-OV-3
[9] = tested on: HOP-62
[10] = tested on: CCRF-CEM
[11] = tested on: SNB-19
[12] = tested on: IGROV-1
[13] = tested on: TK-10
[14] = tested on: SNB-75
[15] = tested on: OVCAR-8
[16] = tested on: OVCAR-3
[17] = tested on: NCI-H460
[18] = tested on: SK-MEL-2
[19] = tested on: SF-539
[20] = tested on: M19-MEL
[21] = tested on: SK-MEL-28
[22] = tested on: EKVX
[23] = tested on: COLO 205
[24] = tested on: RPMI-8226
[25] = tested on: XF498
[26] = tested on: NCI-H23
[27] = tested on: LOX IMVI
[28] = tested on: U-251
[29] = tested on: HCT-15
[30] = tested on: CAKI-1
[31] = tested on: KM-20L2
[32] = tested on: HL-60
[33] = tested on: SN12C
[34] = tested on: SNB-78
[35] = tested on: NCI-H522
[36] = tested on: DMS-273
[37] = tested on: A549
[38] = tested on: HOP-18
[39] = tested on: OVCAR-5
[40] = tested on: NCI-H226
[41] = tested on: OVCAR-4
[42] = tested on: RXF 393
[43] = tested on: HCC 2998
[44] = tested on: SF-268
[45] = tested on: DMS-114
[46] = tested on: M14
[47] = tested on: Malme-3M
[48] = tested on: MOLT-4
[49] = tested on: 786-0
[50] = tested on: LXFL 529
[51] = tested on: DLD-1
[52] = tested on: HOP-92
[53] = tested on: SF-295
[54] = tested on: A498
[55] = tested on: UACC-257
[56] = tested on: SK-MEL-5
[57] = tested on: KM12
[58] = tested on: HT-29

C[C@]12CC[C@H](OCCC#N)CC1=CC[C@@H]1C2CC[C@]2(C)/C(=N/OCCC#N)CCC12 (some centres undefined)
GI50 [1]: > 22.4 µM (inactive) | GI50 [2]: 16.7 µM (inactive) | GI50 [3]: > 21 µM (inactive) | GI50 [4]: > 100 µM (inactive) | GI50 [5]: > 100 µM (inactive) | GI50 [6]: 4.43 µM (inactive) | GI50 [7]: 21.9 µM (inactive) | GI50 [8]: > 63 µM (inactive) | GI50 [9]: > 69.2 µM (inactive) | GI50 [10]: > 100 µM (inactive) | GI50 [11]: 36.6 µM (inactive) | GI50 [12]: > 100 µM (inactive) | GI50 [13]: > 44.4 µM (inactive) | GI50 [14]: 28.1 µM (inactive) | GI50 [15]: > 92.7 µM (inactive) | GI50 [16]: > 21 µM (inactive) | GI50 [17]: 97.7 µM (inactive) | GI50 [18]: > 50.2 µM (inactive) | GI50 [19]: 55 µM (inactive) | GI50 [20]: > 100 µM (inactive) | GI50 [21]: > 74.6 µM (inactive) | GI50 [22]: > 94.8 µM (inactive) | GI50 [23]: > 100 µM (inactive) | GI50 [24]: > 100 µM (inactive) | GI50 [25]: 3.4 µM (inactive) | GI50 [26]: 10.8 µM (inactive) | GI50 [27]: 5.7 µM (inactive) | GI50 [28]: 24.8 µM (inactive) | GI50 [29]: > 100 µM | GI50 [30]: 26.1 µM (inactive) | GI50 [31]: > 100 µM (inactive) | GI50 [32]: 2.48 µM (inactive) | GI50 [33]: > 100 µM (inactive) | GI50 [34]: 22.8 µM (inactive) | GI50 [35]: 20.9 µM (inactive) | GI50 [36]: 42.2 µM (inactive) | GI50 [37]: 31.3 µM (inactive) | GI50 [38]: > 100 µM (inactive) | GI50 [39]: > 100 µM (inactive) | GI50 [40]: > 100 µM (inactive) | GI50 [41]: 29 µM (inactive) | GI50 [42]: 25.4 µM (inactive) | GI50 [43]: > 100 µM (inactive) | GI50 [44]: > 100 µM (inactive) | GI50 [45]: 5.12 µM (inactive) | GI50 [46]: 38.3 µM (inactive) | GI50 [47]: 30.1 µM (inactive) | GI50 [48]: > 100 µM (inactive) | GI50 [49]: 33 µM (inactive) | GI50 [50]: > 74.6 µM (inactive) | GI50 [51]: > 100 µM (inactive) | GI50 [52]: 14.3 µM (inactive) | GI50 [53]: 17.2 µM (inactive) | GI50 [54]: > 100 µM (inactive) | GI50 [55]: 6.62 µM (inactive) | GI50 [56]: > 21 µM (inactive) | GI50 [57]: > 100 µM (inactive)

COC(=O)C(C(=O)C(=O)Nc1ccccc1C)c1nc2ccc([N+](=O)[O-])cc2nc1O (centres undefined)
GI50 [1]: > 100 µM (inactive) | GI50 [2]: > 100 µM (inactive) | GI50 [3]: > 100 µM (inactive) | GI50 [4]: > 100 µM (inactive) | GI50 [5]: > 100 µM (inactive) | GI50 [6]: > 100 µM (inactive) | GI50 [7]: > 100 µM (inactive) | GI50 [8]: > 100 µM (inactive) | GI50 [9]: > 100 µM (inactive) | GI50 [10]: > 100 µM (inactive) | GI50 [11]: > 100 µM (inactive) | GI50 [12]: > 100 µM (inactive) | GI50 [13]: > 100 µM (inactive) | GI50 [14]: > 100 µM (inactive) | GI50 [15]: > 100 µM (inactive) | GI50 [16]: > 100 µM (inactive) | GI50 [17]: > 100 µM (inactive) | GI50 [18]: > 100 µM (inactive) | GI50 [19]: > 100 µM (inactive) | GI50 [20]: > 100 µM (inactive) | GI50 [21]: > 100 µM (inactive) | GI50 [22]: > 100 µM (inactive) | GI50 [23]: > 100 µM (inactive) | GI50 [24]: > 100 µM (inactive) | GI50 [25]: > 100 µM (inactive) | GI50 [26]: > 100 µM (inactive) | GI50 [27]: > 100 µM (inactive) | GI50 [28]: > 100 µM (inactive) | GI50 [29]: > 100 µM | GI50 [30]: > 100 µM (inactive) | GI50 [31]: > 100 µM (inactive) | GI50 [32]: > 100 µM (inactive) | GI50 [33]: > 100 µM (inactive) | GI50 [34]: > 100 µM (inactive) | GI50 [35]: 47.3 µM (inactive) | GI50 [36]: > 100 µM (inactive) | GI50 [37]: > 100 µM (inactive) | GI50 [38]: > 100 µM (inactive) | GI50 [39]: > 100 µM (inactive) | GI50 [40]: > 100 µM (inactive) | GI50 [41]: > 100 µM (inactive) | GI50 [42]: > 100 µM (inactive) | GI50 [43]: > 100 µM (inactive) | GI50 [44]: > 100 µM (inactive) | GI50 [45]: > 100 µM (inactive) | GI50 [46]: > 100 µM (inactive) | GI50 [47]: > 100 µM (inactive) | GI50 [48]: > 100 µM (inactive) | GI50 [49]: > 100 µM (inactive) | GI50 [50]: > 100 µM (inactive) | GI50 [51]: > 100 µM (inactive) | GI50 [58]: > 100 µM (inactive) | GI50 [53]: > 100 µM (inactive) | GI50 [54]: > 100 µM (inactive) | GI50 [55]: > 100 µM (inactive) | GI50 [56]: > 100 µM (inactive) | GI50 [57]: > 100 µM (inactive)
